Results on 21 compounds are retold here after the Kinase Knowledgebase extract (Sharma et al. 2016).

SMILES strings stand for the structures.

Sequence of ROCK2 (human) (O75116 whole entry, looked up): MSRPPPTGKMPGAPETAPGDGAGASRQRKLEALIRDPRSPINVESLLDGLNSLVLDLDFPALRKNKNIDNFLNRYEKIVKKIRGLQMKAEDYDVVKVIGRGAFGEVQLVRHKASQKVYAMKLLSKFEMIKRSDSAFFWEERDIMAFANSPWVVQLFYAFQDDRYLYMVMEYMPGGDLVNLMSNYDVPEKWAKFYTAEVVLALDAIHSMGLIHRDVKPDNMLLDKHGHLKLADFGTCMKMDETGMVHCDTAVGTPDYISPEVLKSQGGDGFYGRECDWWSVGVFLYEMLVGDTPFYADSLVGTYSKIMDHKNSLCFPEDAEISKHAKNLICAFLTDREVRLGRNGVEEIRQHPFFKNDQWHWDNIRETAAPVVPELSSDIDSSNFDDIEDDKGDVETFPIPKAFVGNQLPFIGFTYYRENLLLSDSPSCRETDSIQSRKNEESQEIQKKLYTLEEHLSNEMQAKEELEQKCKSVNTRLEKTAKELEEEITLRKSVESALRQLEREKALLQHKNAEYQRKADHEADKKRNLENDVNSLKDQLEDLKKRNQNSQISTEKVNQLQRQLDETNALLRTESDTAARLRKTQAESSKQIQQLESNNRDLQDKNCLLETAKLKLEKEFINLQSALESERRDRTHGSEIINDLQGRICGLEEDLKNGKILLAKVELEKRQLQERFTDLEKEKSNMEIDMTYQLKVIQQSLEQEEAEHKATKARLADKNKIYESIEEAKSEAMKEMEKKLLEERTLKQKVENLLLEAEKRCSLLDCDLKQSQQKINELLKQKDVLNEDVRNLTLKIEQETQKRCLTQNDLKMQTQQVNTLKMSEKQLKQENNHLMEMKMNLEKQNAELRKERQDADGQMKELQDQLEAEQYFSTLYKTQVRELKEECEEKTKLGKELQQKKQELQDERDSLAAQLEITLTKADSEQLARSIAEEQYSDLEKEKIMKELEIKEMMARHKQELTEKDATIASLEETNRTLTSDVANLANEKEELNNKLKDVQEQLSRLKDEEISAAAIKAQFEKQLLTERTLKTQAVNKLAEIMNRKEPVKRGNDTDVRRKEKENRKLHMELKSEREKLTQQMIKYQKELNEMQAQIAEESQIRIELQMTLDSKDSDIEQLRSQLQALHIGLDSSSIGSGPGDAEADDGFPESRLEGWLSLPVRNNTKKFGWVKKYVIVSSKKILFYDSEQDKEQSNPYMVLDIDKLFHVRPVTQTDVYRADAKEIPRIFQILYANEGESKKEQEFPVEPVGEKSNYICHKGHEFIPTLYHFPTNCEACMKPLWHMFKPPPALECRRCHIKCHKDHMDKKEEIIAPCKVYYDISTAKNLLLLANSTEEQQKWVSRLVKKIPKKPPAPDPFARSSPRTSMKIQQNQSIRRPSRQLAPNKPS

The experiment concerns the target ROCK2 (human) (UniProt O75116). The experiment can be described thus: Assessment of ROCK2 Kinase Activity by Luciferase Assay.
As to `COc1ccc(C(=O)NCc2cccc(C(=O)Nc3ccc4cnccc4c3)c2)cc1OC`, the 50% inhibitory concentration (IC50) turned out to be 0.685 µM.
With `COc1ccc(NC(=O)Cc2cccc(NC(=O)CCC3CCCNC3)c2)cc1OC` (stereo unspecified), the IC50 was found to be 0.037 µM.
Still for that read-out and setting: the figure for `N#Cc1ccc(NC(=O)NCc2cccc(C(=O)NCCC3CCNCC3)c2)cc1` is 0.065 µM; for `COc1ccc(CC(=O)Nc2cccc(C(=O)NCCC3CCCNC3)c2)cc1OC` (stereo unspecified) it is 3.2 µM.
Take `COc1ccc(C(=O)NCc2cccc(C(=O)Nc3ccc(CN(C)C)cc3)c2)cc1`: the 50% inhibitory concentration (IC50) amounted to 1.3 µM.
The same measure, in the same setting: under `COc1ccc(C(=O)NCc2cccc(C(=O)NCCC3CCCN(C)C3)c2)cc1OC` (stereo unspecified) stands 0.102 µM; under `CN(C)Cc1ccc(NC(=O)c2cccc(CNC(=O)c3ccc(OC(F)(F)F)c(Cl)c3)c2)cc1`, 0.67 µM; under `N#Cc1ccc(NC(=O)NCc2cccc(C(=O)Nc3ccc(CN)cc3)c2)cc1`, 0.07 µM.
Turning to `COc1ccc(NC(=O)NCc2cccc(C(=O)NCCC3CCCNC3)c2)cc1OC` (stereo unspecified), the IC50 came to 1.6 µM.
Same read-out and setting: under `CN(C)Cc1ccc(NC(=O)c2cccc(CNC(=O)Nc3cccc(C(N)=O)c3)c2)cc1` stands 0.24 µM; under `N#Cc1ccc(NC(=O)NCc2cccc(NC(=O)CCC3CCCNC3)c2)cc1` (stereo unspecified), 0.11 µM; under `COc1ccc(C(=O)NCc2cccc(C(=O)NCC3CCCO3)c2)cc1OC` (stereo unspecified), 1200 µM.
Take `COc1ccc(C(=O)NCc2cccc(C(=O)NCCC3CCCNC3)c2)cc1OC` (stereo unspecified): the dissociation constant (Kd) turned out to be 0.018 µM.
As to `COc1ccc(C(=O)NCc2cccc(C(=O)Nc3ccc4c(c3)CNCC4)c2)cc1OC`, the dissociation constant (Kd) worked out at 0.007 µM.
On to `COc1ccc(C(=O)NCc2cccc(C(=O)Nc3ccc(CN(C)C)cc3)c2)cc1C(F)(F)F`, for which the IC50 worked out at 0.16 µM.
Still for that read-out and setting: under `CN(C)Cc1ccc(NC(=O)c2cccc(CNC(=O)c3ccc(C#N)cc3)c2)cc1` stands 1.7 µM; under `CN(C)Cc1ccc(NC(=O)c2cccc(CNC(=O)Nc3ccc(C#N)c(Cl)c3)c2)cc1`, 0.01 µM; under `CN(C)Cc1ccc(NC(=O)c2cccc(CNC(=O)Nc3ccc(C(N)=O)cc3)c2)cc1`, 0.008 µM.
The same measure, in the same setting: under `COc1ccc(C(=O)NCc2cccc(C(=O)Nc3ccc4c(c3)CCNC4)c2)cc1OC` stands 0.1 µM.
The same measure, in the same setting: under `COc1ccc(C(=O)NCc2cccc(C(=O)Nc3ccc(CN(C)C)cc3)c2)cc1C` stands 0.266 µM.
The compound `CN(C)Cc1ccc(NC(=O)c2cccc(CNC(=O)Nc3ccc(C(N)=O)c(Cl)c3)c2)cc1` came in with a concentration for half-maximal inhibition (IC50) of 0.074 µM.

In general, IC50 refers to the concentration needed to halve the response being measured. A lower IC50 goes with greater potency. One may read the Kd as the concentration at which binding is half-saturated.
